According to the supplement of paper PMC10307832:

Columns and labels:
Assay in all cases: relative viability (nuclei count vs DMSO), 5 days (fraction); higher = more cells survive
[1] = compound: O=C(Nc1cc(C(F)(F)F)cc(C(F)(F)F)c1)c1cc(Cl)ccc1O [IMD-0354] + CCNC(=O)c1noc(-c2cc(C(C)C)c(O)cc2O)c1-c1ccc(CN2CCOCC2)cc1 [Luminespib] (partner 0.01 µM)
Procedure, shortened: (§1)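 Lung cancer cell lines in 1536-well plates got either a single drug or a fixed anchor-drug dose together with five library-drug doses (not always all listed) in √10 steps, by pin tool, on the day after seeding. Nuclei were counted after 5 days, and relative viability is the treated-to-vehicle ratio of nuclei counts. Values are medians of duplicate plates.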

[2] = compound: O=C(Nc1cc(C(F)(F)F)cc(C(F)(F)F)c1)c1cc(Cl)ccc1O [IMD-0354] + Cc1cc(Nc2cc(N3CCN(C)CC3)nc(Sc3ccc(NC(=O)C4CC4)cc3)n2)n[nH]1 [Tozasertib] (partner 0.1 µM)
Procedure, shortened: as §1

[3] = compound: Cc1cnc(CNC(=O)c2c(=O)c3ccc(N4CCCN(C)CC4)nc3n3c2sc2ccccc23)cn1 [CX-5461] + O=C(CCCCCCC(=O)Nc1ccccc1)NO [Vorinostat] (partner 1 µM)
Procedure, shortened: as §1

[4] = compound: O=C(Nc1cc(C(F)(F)F)cc(C(F)(F)F)c1)c1cc(Cl)ccc1O [IMD-0354] + O=C(c1cc(Cc2n[nH]c(=O)c3ccccc23)ccc1F)N1CCN(C(=O)C2CC2)CC1 [Olaparib] (partner 8 µM)
Procedure, shortened: as §1

Cell Line	relative viability ([1]; first compound 0.04 µM)	relative viability ([1]; first compound 0.1265 µM)	relative viability ([1]; first compound 0.4 µM)	relative viability ([1]; first compound 1.265 µM)	relative viability ([1]; first compound 4 µM)	relative viability ([2]; first compound 0.04 µM)	relative viability ([2]; first compound 0.1265 µM)	relative viability ([2]; first compound 0.4 µM)	relative viability ([2]; first compound 1.265 µM)	relative viability ([2]; first compound 4 µM)	relative viability ([3]; first compound 0.01 µM)	relative viability ([3]; first compound 0.03162 µM)	relative viability ([3]; first compound 0.1 µM)	relative viability ([3]; first compound 1 µM)	relative viability ([4]; first compound 0.04 µM)	relative viability ([4]; first compound 0.1265 µM)	relative viability ([4]; first compound 0.4 µM)	relative viability ([4]; first compound 1.265 µM)	relative viability ([4]; first compound 4 µM)	relative viability ([3]; first compound 0.3162 µM)
NCI-H522	1.03	0.908	1.2	0.813	0.505	0.58	0.513	0.5	0.576	0.404	1	1.1	0.955	0.852	0.517	0.716	0.625	0.46	0.333	–
HCC-15	0.236	0.257	0.275	0.104	0.0925	0.331	0.379	0.31	0.17	0.098	0.926	0.882	0.818	0.768	0.576	0.69	0.474	0.317	0.157	0.834
A-427	1.06	0.985	0.457	0.301	0.166	0.204	0.211	0.232	0.137	0.148	0.879	0.884	0.872	0.548	0.847	0.809	0.494	0.128	0.15	0.805
NCI-H2228	0.102	0.169	0.109	0.128	0.145	0.181	0.256	0.275	0.185	0.175	0.516	0.66	0.54	0.114	0.888	0.586	0.482	0.274	0.172	0.793
NCI-H1734	0.201	0.181	0.2	0.147	0.143	0.267	0.267	0.265	0.231	0.117	0.83	0.908	0.744	0.35	0.608	0.68	0.465	0.421	0.175	0.278
SK-LU-1	0.178	0.169	0.244	0.149	0.169	0.308	0.349	0.304	0.2	0.189	0.826	0.721	0.777	0.538	0.481	0.395	0.325	0.265	0.205	0.777
PC-14	0.143	0.18	0.152	0.134	0.109	0.675	0.61	0.353	0.312	0.076	0.65	0.797	0.533	0.106	0.223	0.276	0.269	0.0804	0.126	0.527
NCI-H1915	0.609	0.665	0.296	0.355	0.226	0.482	0.412	0.299	0.268	0.175	0.554	0.567	0.503	0.482	0.264	0.263	0.235	0.175	0.136	0.427
NCI-H1666	1.06	1.06	0.963	0.499	0.369	0.672	0.587	0.488	0.369	0.309	0.986	1.05	1.07	0.975	0.752	0.748	0.857	0.703	0.562	0.981
HCC-366	–	–	–	–	–	0.122	0.0913	0.168	0.0335	0.031	0.441	0.408	0.166	0.0455	0.363	0.371	0.231	0.053	0.0706	0.242
LK-2	0.195	0.194	0.184	0.195	0.167	0.182	0.179	0.207	0.175	0.131	0.422	0.315	0.367	0.307	0.695	1.02	–	0.526	0.172	0.2
NCI-H661	0.971	0.946	0.364	0.254	0.217	0.319	0.344	0.34	0.273	0.257	0.822	0.8	0.734	0.583	0.752	0.774	0.356	0.256	0.261	0.472
PC-3 [JPC-3]	0.688	0.53	0.569	0.351	0.259	1	0.707	0.572	0.567	0.312	0.765	–	0.783	0.72	1.25	1.16	0.839	0.374	0.38	0.869
NCI-H1623	0.405	0.369	0.461	0.332	0.287	0.484	0.444	0.398	0.342	0.277	–	–	–	–	–	–	–	–	–	–
Calu-6	–	–	–	–	–	–	–	–	–	–	–	–	–	–	0.555	0.57	0.428	0.138	0.111	–
LC-2-ad	1.01	0.87	0.674	0.312	0.226	0.484	0.528	0.377	0.243	0.257	0.732	0.768	0.716	0.491	0.699	0.71	0.466	0.364	0.223	0.659
CAL-12T	0.432	0.434	0.338	0.126	0.172	0.399	0.307	0.242	0.278	0.111	0.833	0.951	0.74	0.337	0.728	0.705	0.492	0.181	0.203	0.577
RERF-LC-KJ	1.42	1.26	0.4	0.227	0.303	0.565	0.644	0.411	0.274	0.265	0.724	0.756	0.532	0.54	1.08	0.969	0.415	0.169	0.229	0.589
